Experimental data published in ChEMBL document CHEMBL1201862, “PubChem BioAssay data set” (2004).
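Values below derive from 48-hour exposures of cells grown in 96-well plates, with endpoints linearly interpolated between the two concentrations bracketing the appropriate inhibition level. At the GI50, growth is halved.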 Activity calls are given as the source filed them. No stated cut-off is given here; in the data, active = GI50 up to about 1.1 µM and inactive = higher.

Tests used:
Assay in all cases: DTP human tumour cell line panel, 48 h
786-0 = tested on: 786-0
A498 = tested on: A498
A549 = tested on: A549
ACHN = tested on: ACHN
BT-549 = tested on: BT-549
CAKI-1 = tested on: CAKI-1
CCRF-CEM = tested on: CCRF-CEM
COLO 205 = tested on: COLO 205
DU-145 = tested on: DU-145
EKVX = tested on: EKVX
HCC 2998 = tested on: HCC 2998
HCT-116 = tested on: HCT-116
HCT-15 = tested on: HCT-15
HL-60 = tested on: HL-60
HOP-62 = tested on: HOP-62
HOP-92 = tested on: HOP-92
HT-29 = tested on: HT-29
Hs-578T = tested on: Hs-578T
IGROV-1 = tested on: IGROV-1
K562 = tested on: K562
KM12 = tested on: KM12
LOX IMVI = tested on: LOX IMVI
M14 = tested on: M14
MCF7 = tested on: MCF7
MDA-MB-231 = tested on: MDA-MB-231
MDA-MB-435 = tested on: MDA-MB-435
MDA-N = tested on: MDA-N
MOLT-4 = tested on: MOLT-4
Malme-3M = tested on: Malme-3M
NCI-H226 = tested on: NCI-H226
NCI-H23 = tested on: NCI-H23
NCI-H460 = tested on: NCI-H460
NCI-H522 = tested on: NCI-H522
NCI/ADR-RES = tested on: NCI/ADR-RES
OVCAR-3 = tested on: OVCAR-3
OVCAR-4 = tested on: OVCAR-4
OVCAR-5 = tested on: OVCAR-5
OVCAR-8 = tested on: OVCAR-8
PC-3 = tested on: PC-3
RPMI-8226 = tested on: RPMI-8226
RXF 393 = tested on: RXF 393
SF-268 = tested on: SF-268
SF-295 = tested on: SF-295
SF-539 = tested on: SF-539
SK-MEL-28 = tested on: SK-MEL-28
SK-MEL-2 = tested on: SK-MEL-2
SK-MEL-5 = tested on: SK-MEL-5
SK-OV-3 = tested on: SK-OV-3
SN12C = tested on: SN12C
SNB-19 = tested on: SNB-19
SNB-75 = tested on: SNB-75
SR = tested on: SR
SW-620 = tested on: SW-620
T47D = tested on: T47D
TK-10 = tested on: TK-10
U-251 = tested on: U-251
UACC-257 = tested on: UACC-257
UACC-62 = tested on: UACC-62
UO-31 = tested on: UO-31

Question: With `COc1cccc(C2c3cc4c(cc3OC(C)(N3CCCC3)C2C)OCO4)c1O` (stereo not drawn) as the molecule, how does the GI50 (786-0) read?
Answer: 4710 nM (inactive)

Question: And the GI50 (A498)?
Answer: 6400 nM (inactive)

Question: And the GI50 (A549)?
Answer: 6700 nM (inactive)

Question: And the GI50 (ACHN)?
Answer: 11300 nM (inactive)

Question: What about the GI50 (BT-549) of the same molecule?
Answer: 3260 nM (inactive)

Question: And the GI50 (CAKI-1)?
Answer: 5830 nM (inactive)

Question: What about the GI50 (CCRF-CEM) of the same molecule?
Answer: 9060 nM (inactive)

Question: What about the GI50 (COLO 205) of the same molecule?
Answer: 3130 nM (inactive)

Question: What about the GI50 (DU-145) of the same molecule?
Answer: 3520 nM (inactive)

Question: What about the GI50 (EKVX) of the same molecule?
Answer: 7910 nM (inactive)

Question: What about the GI50 (HCC 2998) of the same molecule?
Answer: 8090 nM (inactive)

Question: And the GI50 (HCT-116)?
Answer: 4250 nM (inactive)

Question: What about the GI50 (HCT-15) of the same molecule?
Answer: 3600 nM

Question: And the GI50 (HL-60)?
Answer: 2710 nM (inactive)

Question: What about the GI50 (HOP-62) of the same molecule?
Answer: 7980 nM (inactive)

Question: And the GI50 (HOP-92)?
Answer: 11500 nM (inactive)

Question: What about the GI50 (HT-29) of the same molecule?
Answer: 2360 nM (inactive)

Question: And the GI50 (Hs-578T)?
Answer: 2000 nM (inactive)

Question: And the GI50 (IGROV-1)?
Answer: 6010 nM (inactive)

Question: What about the GI50 (K562) of the same molecule?
Answer: 3450 nM (inactive)

Question: And the GI50 (KM12)?
Answer: 3140 nM (inactive)

Question: What about the GI50 (LOX IMVI) of the same molecule?
Answer: 4820 nM (inactive)

Question: And the GI50 (M14)?
Answer: 3080 nM (inactive)

Question: What about the GI50 (MCF7) of the same molecule?
Answer: 3470 nM (inactive)

Question: And the GI50 (MDA-MB-231)?
Answer: 3010 nM (inactive)

Question: And the GI50 (MDA-MB-435)?
Answer: 1630 nM (inactive)

Question: What about the GI50 (MDA-N) of the same molecule?
Answer: 1930 nM (inactive)

Question: What about the GI50 (MOLT-4) of the same molecule?
Answer: 6640 nM (inactive)

Question: And the GI50 (Malme-3M)?
Answer: 3890 nM (inactive)

Question: What about the GI50 (NCI-H226) of the same molecule?
Answer: 4490 nM (inactive)

Question: And the GI50 (NCI-H23)?
Answer: 3050 nM (inactive)

Question: And the GI50 (NCI-H460)?
Answer: 5500 nM (inactive)

Question: What about the GI50 (NCI-H522) of the same molecule?
Answer: 2050 nM (inactive)

Question: What about the GI50 (NCI/ADR-RES) of the same molecule?
Answer: 2720 nM (inactive)

Question: What about the GI50 (OVCAR-3) of the same molecule?
Answer: 2050 nM (inactive)

Question: What about the GI50 (OVCAR-4) of the same molecule?
Answer: 13300 nM (inactive)

Question: And the GI50 (OVCAR-5)?
Answer: 8360 nM (inactive)

Question: And the GI50 (OVCAR-8)?
Answer: 7870 nM (inactive)

Question: And the GI50 (PC-3)?
Answer: 3320 nM (inactive)

Question: What about the GI50 (RPMI-8226) of the same molecule?
Answer: 5320 nM (inactive)

Question: What about the GI50 (RXF 393) of the same molecule?
Answer: 2890 nM (inactive)

Question: What about the GI50 (SF-268) of the same molecule?
Answer: 8220 nM (inactive)

Question: And the GI50 (SF-295)?
Answer: 4900 nM (inactive)

Question: What about the GI50 (SF-539) of the same molecule?
Answer: 4310 nM (inactive)

Question: And the GI50 (SK-MEL-28)?
Answer: 12200 nM (inactive)

Question: What about the GI50 (SK-MEL-2) of the same molecule?
Answer: 4980 nM (inactive)

Question: And the GI50 (SK-MEL-5)?
Answer: 2570 nM (inactive)

Question: And the GI50 (SK-OV-3)?
Answer: 3440 nM (inactive)

Question: And the GI50 (SN12C)?
Answer: 6580 nM (inactive)

Question: What about the GI50 (SNB-19) of the same molecule?
Answer: 4060 nM (inactive)

Question: What about the GI50 (SNB-75) of the same molecule?
Answer: 2300 nM (inactive)

Question: And the GI50 (SR)?
Answer: 2060 nM (inactive)

Question: What about the GI50 (SW-620) of the same molecule?
Answer: 4010 nM (inactive)

Question: And the GI50 (T47D)?
Answer: 12100 nM (inactive)

Question: What about the GI50 (TK-10) of the same molecule?
Answer: 5400 nM (inactive)

Question: And the GI50 (U-251)?
Answer: 4350 nM (inactive)

Question: What about the GI50 (UACC-257) of the same molecule?
Answer: 5050 nM (inactive)

Question: What about the GI50 (UACC-62) of the same molecule?
Answer: 4600 nM (inactive)

Question: What about the GI50 (UO-31) of the same molecule?
Answer: 10900 nM (inactive)

Question: How did the GI50 (786-0) turn out when `COc1ccc2cc(CNCCCN3CCN(CCCNCc4ccc5cc(OC)ccc5c4)CC3)ccc2c1` was run?
Answer: 1550 nM (inactive)

Question: And the GI50 (A498)?
Answer: 1660 nM (inactive)

Question: And the GI50 (A549)?
Answer: 1830 nM (inactive)

Question: What about the GI50 (ACHN) of the same molecule?
Answer: 1800 nM (inactive)

Question: What about the GI50 (BT-549) of the same molecule?
Answer: 1780 nM (inactive)

Question: And the GI50 (CAKI-1)?
Answer: 1780 nM (inactive)

Question: What about the GI50 (CCRF-CEM) of the same molecule?
Answer: 450 nM (active)

Question: And the GI50 (COLO 205)?
Answer: 1400 nM (inactive)

Question: What about the GI50 (DU-145) of the same molecule?
Answer: 1540 nM (inactive)

Question: And the GI50 (EKVX)?
Answer: 1730 nM (inactive)

Question: What about the GI50 (HCC 2998) of the same molecule?
Answer: 240 nM (active)

Question: What about the GI50 (HCT-116) of the same molecule?
Answer: 1260 nM (inactive)

Question: What about the GI50 (HCT-15) of the same molecule?
Answer: 1570 nM

Question: And the GI50 (HL-60)?
Answer: 240 nM (active)

Question: What about the GI50 (HOP-62) of the same molecule?
Answer: 1650 nM (inactive)

Question: And the GI50 (HOP-92)?
Answer: 1430 nM (inactive)

Question: And the GI50 (HT-29)?
Answer: 490 nM (active)

Question: What about the GI50 (Hs-578T) of the same molecule?
Answer: 1520 nM (inactive)

Question: And the GI50 (IGROV-1)?
Answer: 1720 nM (inactive)

Question: And the GI50 (K562)?
Answer: 198 nM (active)

Question: And the GI50 (KM12)?
Answer: 789 nM (active)

Question: And the GI50 (LOX IMVI)?
Answer: 550 nM (active)

Question: And the GI50 (M14)?
Answer: 1600 nM (inactive)

Question: And the GI50 (MCF7)?
Answer: 1350 nM (inactive)

Question: What about the GI50 (MDA-MB-231) of the same molecule?
Answer: 1900 nM (inactive)

Question: What about the GI50 (MDA-MB-435) of the same molecule?
Answer: 1600 nM (inactive)

Question: And the GI50 (MDA-N)?
Answer: 1440 nM (inactive)

Question: What about the GI50 (MOLT-4) of the same molecule?
Answer: 859 nM (active)

Question: And the GI50 (Malme-3M)?
Answer: 1720 nM (inactive)

Question: And the GI50 (NCI-H226)?
Answer: 1910 nM (inactive)

Question: And the GI50 (NCI-H23)?
Answer: 1910 nM (inactive)

Question: What about the GI50 (NCI-H460) of the same molecule?
Answer: 830 nM (active)

Question: And the GI50 (NCI-H522)?
Answer: 2240 nM (inactive)

Question: What about the GI50 (NCI/ADR-RES) of the same molecule?
Answer: 2210 nM (inactive)

Question: What about the GI50 (OVCAR-3) of the same molecule?
Answer: 1630 nM (inactive)

Question: And the GI50 (OVCAR-4)?
Answer: 1960 nM (inactive)

Question: And the GI50 (OVCAR-5)?
Answer: 1170 nM (inactive)

Question: And the GI50 (OVCAR-8)?
Answer: 1730 nM (inactive)

Question: And the GI50 (PC-3)?
Answer: 966 nM (active)

Question: And the GI50 (RPMI-8226)?
Answer: 276 nM (active)

Question: What about the GI50 (RXF 393) of the same molecule?
Answer: 1460 nM (inactive)

Question: And the GI50 (SF-268)?
Answer: 1770 nM (inactive)

Question: And the GI50 (SF-295)?
Answer: 1680 nM (inactive)

Question: What about the GI50 (SF-539) of the same molecule?
Answer: 1810 nM (inactive)

Question: What about the GI50 (SK-MEL-28) of the same molecule?
Answer: 1710 nM (inactive)

Question: What about the GI50 (SK-MEL-2) of the same molecule?
Answer: 1930 nM (inactive)

Question: What about the GI50 (SK-MEL-5) of the same molecule?
Answer: 1690 nM (inactive)

Question: What about the GI50 (SK-OV-3) of the same molecule?
Answer: 1420 nM (inactive)

Question: And the GI50 (SN12C)?
Answer: 1690 nM (inactive)

Question: What about the GI50 (SNB-19) of the same molecule?
Answer: 1760 nM (inactive)

Question: And the GI50 (SNB-75)?
Answer: 1620 nM (inactive)

Question: What about the GI50 (SR) of the same molecule?
Answer: 333 nM (active)

Question: What about the GI50 (SW-620) of the same molecule?
Answer: 327 nM (active)

Question: What about the GI50 (T47D) of the same molecule?
Answer: 1320 nM (inactive)

Question: And the GI50 (TK-10)?
Answer: 1890 nM (inactive)

Question: And the GI50 (U-251)?
Answer: 1750 nM (inactive)

Question: What about the GI50 (UACC-257) of the same molecule?
Answer: 2220 nM (inactive)

Question: And the GI50 (UACC-62)?
Answer: 569 nM (active)

Question: What about the GI50 (UO-31) of the same molecule?
Answer: 1760 nM (inactive)
